Data on 44 molecules can be found in US5428059A, “Benzopyran derivatives and an anti-allergic agent possessing the same as the active ingredient” (Dainippon Ink & Chemicals, Inc., priority 1991, dated 1995).

For the experiment, the system named is Hartley-type male guinea pigs. Nature of the experiment: Guinea Pig Homogeneous Skin Passive Anaphylaxis Assay (PCA reaction). The class given is in vivo, guinea pig (Hartley-type). The conditions noted are these: 10 mg/kg oral, 48 h after sensitization; for inhibition in vivo at 10 mg/kg: Cavia porcellus, read-out: Allergic reaction inhibitory index (%). A digest of the protocol: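 Male Hartley guinea pigs (250~300 g) given intradermal back injections of 120-fold-diluted anti-OVA serum; 48 h later test substance dosed orally at 10 mg/kg, then challenged i.v. with OVA plus Evans Blue. Dye-spot area (long × short diameter, mm^2) measured at 30 min; inhibition % calculated against solvent control.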

As to `COc1cccc2c(OC(=O)c3ccccc3)c(OC(C)C)c(=O)oc12` [Compound 119, 3-(isopropoxy)-4-(benzoyloxy)-8-(methoxy)-2H-1-benzopyran-2-one], the inhibition in vivo at 10 mg/kg turned out to be 30%. For the molecule `CC(C)=CCC/C(C)=C/COc1c(O)c(=O)oc2cccc(OC(C)C)c12` [Compound 220, 3-hydroxy-4-(geranyloxy)-5-(isopropoxy)-2H-1-benzopyran-2-one], the inhibition in vivo at 10 mg/kg turned out to be 30%. Still for that read-out and setting: the result for `CCCCCCCCCCOc1c(O)c2cccc(OC(C)C)c2oc1=O` [Compound 133, 3-(decyloxy)-4-hydroxy-8-(isopropoxy)-2H-1-benzopyran-2-one] reads 36%; that for `CCCCCCCCCCOc1ccc2c(OC/C=C(\C)CCC=C(C)C)c(OC/C=C(\C)CCC=C(C)C)c(=O)oc2c1` [Compound 73, 3-4-(digeranyloxy)-7-(decyloxy)-2H-1-benzopyran-2-one], 30%. Take `CC(=O)Oc1c(OC(=O)c2ccccc2)c(=O)oc2cccc(O)c12` [Compound 180, 3-(benzoyloxy)-4-(acetoxy)-5-hydroxy-2H-1-benzopyran-2-one]: the inhibition in vivo at 10 mg/kg came to 30%. As to `COc1c(OC/C=C(\C)CCC=C(C)C)c2c(OC)cccc2oc1=O` [Compound 208, 3,5-(dimethoxy)-4-(geranyloxy)-2H-1-benzopyran-2-one], the inhibition in vivo at 10 mg/kg is 32%. `COc1c(OC/C=C(\C)CCC=C(C)C)c(=O)oc2cc(OC/C=C(\C)CCC=C(C)C)ccc12` [Compound 87, 3,7-(digeranyloxy)-4-(methoxy)-2H-1-benzopyran-2-one]: the inhibition in vivo at 10 mg/kg turned out to be 31%. Take `CCCCCCCCCCOc1cccc2c(OC(=O)c3ccccc3)c(OC(C)=O)c(=O)oc12` [Compound 146, 3-(acetoxy)-4-(benzoyloxy)-8-(decyloxy)-2H-1-benzopyran-2-one]: the inhibition in vivo at 10 mg/kg was 30%.

Consider `COc1c(O)c2cccc(OC)c2oc1=O` [Compound 115, 3,8-(dimethoxy)-4-hydroxy-2H-1-benzopyran-2-one], for which the inhibition in vivo at 10 mg/kg was 33%. On the same count and under the same terms, for `CC(C)=CCC/C(C)=C/COc1ccc2c(OC/C=C(\C)CCC=C(C)C)c(OC(=O)c3ccccc3)c(=O)oc2c1` [Compound 86, 3-(benzoyloxy)-4,7-(digeranyloxy)-2H-1-benzopyran-2-one] the value was 30%. On to `COc1cccc2c(OC(C)C)c(O)c(=O)oc12` [Compound 116, 3-hydroxy-4-(isopropoxy)-8-(methoxy).2H-1-benzopyran-2-one], for which the inhibition in vivo at 10 mg/kg came out at 34%.

Turning to `CC(C)=CCC/C(C)=C/COc1c(O)c2cccc(OC/C=C(\C)CCC=C(C)C)c2oc1=O` [Compound 167, 3,8-(digeranyloxy)-4-hydroxy-2H-1-benzopyran-2-one], the inhibition in vivo at 10 mg/kg was 30%. On the same count and under the same terms, the result for `COc1cccc2c(OC/C=C(\C)CCC=C(C)C)c(OC(C)=O)c(=O)oc12` [Compound 123, 3-(acetoxy)-4-(geranyloxy)-8-(methoxy)-2H-1-benzopyran-2-one] reads 34%; that for `CC(=O)Oc1c(O)c(=O)oc2cccc(OC/C=C(\C)CCC=C(C)C)c12` [Compound 246, 3-hydroxy-4-(acetoxy)-5-(geranyloxy)-2H-1-benzopyran-2-one], 30%; that for `CCCCCCCCCCOc1ccc2c(OC/C=C(\C)CCC=C(C)C)c(O)c(=O)oc2c1` [Compound 68, 3-hydroxy-4-(geranyloxy)-7-(decyloxy)-2H-1-benzopyran-2-one], 32%. `CCCCCCCCCCOc1cccc2oc(=O)c(OC(C)C)c(O)c12` [Compound 233, 3-(isopropoxy)-4-hydroxy-5-(decyloxy)-2H-1-benzopyran-2-one]: the inhibition in vivo at 10 mg/kg was 39%. Regarding `CCCCOc1c(O)c2c(OC)cccc2oc1=O` [Compound 225, 3-(butoxy)-4-hydroxy-5-(methoxy)-2H-1-benzopyran-2-one], the “Allergic reaction inhibitory index (%)” value is 35%.

Turning to `CCCCCCCCCCOc1cccc2c(O)c(O)c(=O)oc12` [Compound 144, 3,4-(dihydroxy)-8-(decyloxy)-2H-1-benzopyran-2-one], the inhibition in vivo at 10 mg/kg was determined as 34%. Same read-out and setting: the result for `CC(C)=CCC/C(C)=C/COc1c(OC(C)C)c(=O)oc2c(O)cccc12` [Compound 108, 3-(isopropoxy)-4-(geranyloxy)-8-hydroxy-2H-1-benzopyran-2-one] reads 32%; that for `COc1ccc2oc(=O)c(O)c(O)c2c1` [Compound 272, 3,4-(dihydroxy)-6-(methoxy)-2H-1-benzopyran-2-one], 30%; that for `COc1cccc2oc(=O)c(OC/C=C(\C)CCC=C(C)C)c(O)c12` [Compound 203, 3-(geranyloxy)-4-hydroxy-5-(methoxy)-2H-1-benzopyran-2-one], 41%. Same read-out and setting: for `CC(C)=CCC/C(C)=C/COc1c(O)c2c(OC/C=C(\C)CCC=C(C)C)cccc2oc1=O` [Compound 253, 3,5-(digeranyloxy)-4-hydroxy-2H-1-benzopyran-2-one] the value was 33%. As to `O=C(Oc1c(O)c2cccc(O)c2oc1=O)c1ccccc1` [Compound 92, 3-(benzoyloxy)-4,8-dihydroxy-2H-1-benzopyran-2-one], the inhibition in vivo at 10 mg/kg was determined as 33%. In the case of `CCCCCCCCCCOc1ccc2c(OC(C)C)c(OC)c(=O)oc2c1` [Compound 64, 3-(methoxy)-4-(isopropoxy)-7-(decyloxy)-2H-1-benzopyran-2-one], the inhibition in vivo at 10 mg/kg is 30%. Regarding `COc1c(OC(C)=O)c2c(OC/C=C(\C)CCC=C(C)C)cccc2oc1=O` [Compound 252, 3-(methoxy)-4-(acetoxy)-5-(geranyloxy)-2H-1-benzopyran-2-one], the inhibition in vivo at 10 mg/kg worked out at 32%.

In the case of `COc1ccc2c(OC(C)=O)c(OC(=O)c3ccccc3)c(=O)oc2c1` [Compound 35, 3-(benzoyloxy)-4-(acetoxy)-7-(methoxy)-2H-1-benzopyran-2-one], the inhibition in vivo at 10 mg/kg stood at 30%.

For `O=C(Oc1c(O)c(=O)oc2cc(O)ccc12)c1ccccc1` [Compound 8, 4-(benzoyloxy)-3,7-(dihydroxy)-2H-1-benzopyran-2-one], the inhibition in vivo at 10 mg/kg is 40%. For the molecule `COc1cccc2oc(=O)c(OC/C=C(\C)CCC=C(C)C)c(OC(=O)c3ccccc3)c12` [Compound 205, 3-(geranyloxy)-4-(benzoyloxy)-5-(methoxy)-2H-1-benzopyran-2-one], the inhibition in vivo at 10 mg/kg came out at 31%.

For the molecule `CC(=O)Oc1c(OC/C=C(\C)CCC=C(C)C)c(=O)oc2c(OC/C=C(\C)CCC=C(C)C)cccc12` [Compound 169, 3,8-(digeranyloxy)-4-(acetoxy)-2H-1-benzopyran-2-one], the inhibition in vivo at 10 mg/kg was determined as 30%. The same measure, in the same setting: for `CC(=O)Oc1c(O)c(=O)oc2cccc(O)c12` [Compound 178, 3,5-(dihydroxy)-4-(acetoxy)-2H-1-benzopyran-2-one] the value was 30%. With `COc1ccc2c(O)c(OC(C)C)c(=O)oc2c1` [Compound 34, 3-(isopropoxy)-4-hydroxy-7-(methoxy)-2H-1-benzopyran-2-one], the inhibition in vivo at 10 mg/kg worked out at 39%. Same read-out and setting: for `COc1ccc2c(O)c(O)c(=O)oc2c1` [Compound 28, 3,4-dihydroxy-7-(methoxy)-2H-1-benzopyran-2-one] the value was 53%; for `CC(=O)Oc1c(OC(C)=O)c2cccc(OC(C)C)c2oc1=O` [Compound 132, 3,4-(diacetoxy)-8-(isopropoxy)-2H-1-benzopyran-2-one], 32%; for `CCCCCCCCCCOc1c(OC(C)=O)c(=O)oc2c(OC(C)C)cccc12` [Compound 136, 3-(acetoxy)-4-(decyloxy)-8-(isopropoxy)-2H-1-benzopyran-2-one], 33%. Same read-out and setting: for `COc1cccc2c(O)c(OC(=O)c3ccccc3)c(=O)oc12` [Compound 110, 3-(benzoyloxy)-4-hydroxy-8-(methoxy)-2H-1-benzopyran-2-one] the value was 31%; for `COc1c(O)c(=O)oc2cc(OC(C)C)ccc12` [Compound 49, 3-hydroxy-4-(methoxy)-7-(isopropoxy)-2H-1-benzopyran-2-one], 36%; for `CCCCCCCCCCOc1ccc2oc(=O)c(OC(C)=O)c(O)c2c1` [Compound 279, 3-(acetoxy)-4-(hydroxy)-6-(decyloxy)-2H-1-benzopyran-2-one], 30%.

Consider `CCCCCCCCCCOc1c(O)c2ccc(O)cc2oc1=O` [Compound 16, 3-(decyloxy)-4,7-(dihydroxy)-2H-1-benzopyran-2-one], for which the inhibition in vivo at 10 mg/kg came out at 40%. The same measure, in the same setting: for `CCCCCCCCCCOc1cccc2oc(=O)c(OC(C)=O)c(OC(=O)c3ccccc3)c12` [Compound 232, 3-(acetoxy)-4-(benzoyloxy)-5-(decyloxy)-2H-1-benzopyran-2-one] the value was 32%; for `CC(C)=CCC/C(C)=C/COc1cccc2oc(=O)c(O)c(O)c12` [Compound 245, 3,4-(dihydroxy)-5-(geranyloxy)-2H-1-benzopyran-2-one], 37%.

On to `CCCCCCCCCCOc1cccc2c(OC(C)C)c(OC(C)=O)c(=O)oc12` [Compound 149, 3-(acetoxy)-4-(isopropoxy)-8-(decyloxy)-2H-1-benzopyran-2-one], for which the inhibition in vivo at 10 mg/kg came to 33%. Take `COc1cccc2c(OC(C)C)c(OC/C=C(\C)CCC=C(C)C)c(=O)oc12` [Compound 124, 3-(geranyloxy)-4-(isopropoxy)-8-(methoxy)-2H-1-benzopyran-2-one]: the inhibition in vivo at 10 mg/kg is 33%. For `CCCCCCCCCCOc1c(OC)c(=O)oc2cc(OC)ccc12` [Compound 36, 3,7-(dimethoxy)-4-(decyloxy)-2H-1-benzopyran-2-one], the inhibition in vivo at 10 mg/kg turned out to be 30%. Still for that read-out and setting: for `COc1c(OC/C=C(\C)CCC=C(C)C)c(=O)oc2c(OC/C=C(\C)CCC=C(C)C)cccc12` [Compound 171, 3,8-(digeranyloxy)-4-(methoxy)-2H-1-benzopyran-2-one] the value was 33%.
